Experimental data taken from PubChem BioAssay (NCI).
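A five-concentration, 48-hour dose response in 96-well plates underlies each endpoint, interpolated linearly between surrounding concentrations. GI50 marks 50% less growth. TGI denotes the concentration required for complete inhibition of growth.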

Experiments:
Assay in all cases: growth of human tumour cells (NCI), 48 h
[1] = system: SF-268 CNS
[2] = system: DU-145 prostate
[3] = system: OVCAR-5 ovarian
[4] = system: BT-549 breast
[5] = system: UO-31 renal
[6] = system: 786-0 renal
[7] = system: RXF 393 renal
[8] = system: TK-10 renal
[9] = system: HOP-62 NSCLC
[10] = system: CCRF-CEM leukemia
[11] = system: RPMI-8226 leukemia
[12] = system: HCC-2998 colon
[13] = system: SK-MEL-2 melanoma
[14] = system: SK-OV-3 ovarian
[15] = system: SR leukemia
[16] = system: T-47D breast
[17] = system: MCF7 breast
[18] = system: NCI/ADR-RES ovarian
[19] = system: SNB-19 CNS
[20] = system: HOP-92 NSCLC
[21] = system: CAKI-1 renal
[22] = system: OVCAR-3 ovarian
[23] = system: UACC-257 melanoma
[24] = system: NCI-H522 lung
[25] = system: SF-539 CNS
[26] = system: MDA-MB-231 breast
[27] = system: PC-3 prostate
[28] = system: IGROV1 ovarian
[29] = system: NCI-H226 lung
[30] = system: U251 CNS
[31] = system: A498 renal
[32] = system: KM12 colon
[33] = system: HT29 colon
[34] = system: MALME-3M melanoma
[35] = system: SK-MEL-28 melanoma
[36] = system: A549 NSCLC
[37] = system: UACC-62 melanoma
[38] = system: COLO 205 colon
[39] = system: SK-MEL-5 melanoma
[40] = system: EKVX NSCLC
[41] = system: MDA-MB-435
[42] = system: NCI-H460 lung
[43] = system: LOX IMVI melanoma
[44] = system: OVCAR-4 ovarian
[45] = system: SNB-75 CNS
[46] = system: OVCAR-8 ovarian
[47] = system: ACHN renal
[48] = system: HCT-116 colon
[49] = system: SF-295 CNS
[50] = system: HS 578T breast
[51] = system: SN12C renal
[52] = system: M14 melanoma
[53] = system: HCT-15 colon

## CC(C)(O)c1cncc(-c2ccc3ncnc(N4CCc5cc(F)c(Cl)cc54)c3c2)c1
[1]
  GI50: 3.22 µM
  TGI: > 100 µM
[2]
  GI50: 1490 nM
  TGI: > 100 µM
[3]
  GI50: 1170 nM
  TGI: > 100 µM
[4]
  GI50: 1220 nM
  TGI: 8.89 µM
[5]
  GI50: 184 nM
  TGI: 74.2 µM
[6]
  GI50: 722 nM
  TGI: 75.4 µM
[7]
  GI50: 432 nM
  TGI: 3.07 µM
[8]
  GI50: 417 nM
  TGI: > 100 µM
[9]
  GI50: 1190 nM
  TGI: > 100 µM
[10]
  GI50: 2320 nM
  TGI: > 100 µM
[11]
  GI50: 1990 nM
  TGI: > 100 µM
[12]
  GI50: 2360 nM
  TGI: > 100 µM
[13]
  GI50: 4.89 µM
  TGI: 66.6 µM
[14]
  GI50: 649 nM
  TGI: 12.2 µM
[15]
  GI50: 1520 nM
  TGI: > 100 µM
[16]
  GI50: 236 nM
  TGI: 4.08 µM
[17]
  GI50: 349 nM
  TGI: > 100 µM
[18]
  GI50: 1590 nM
  TGI: > 100 µM
[19]
  GI50: 2510 nM
  TGI: > 100 µM
[20]
  GI50: 151 nM
  TGI: 827 nM
[21]
  GI50: 388 nM
  TGI: > 100 µM
[22]
  GI50: 2270 nM
  TGI: > 100 µM
[23]
  GI50: 3.96 µM
  TGI: > 100 µM
[24]
  GI50: 1870 nM
  TGI: 85.2 µM
[25]
  GI50: 1960 nM
  TGI: 84.5 µM
[26]
  GI50: 1500 nM
  TGI: > 100 µM
[27]
  GI50: 775 nM
  TGI: > 100 µM
[28]
  GI50: 235 nM
  TGI: 1300 nM
[29]
  GI50: 3.46 µM
  TGI: > 100 µM
[30]
  GI50: 6.75 µM
  TGI: > 100 µM
[31]
  GI50: 197 nM
  TGI: 1170 nM
[32]
  GI50: 5.86 µM
  TGI: > 100 µM
[33]
  GI50: 908 nM
  TGI: > 100 µM
[34]
  GI50: 1520 nM
  TGI: > 100 µM
[35]
  GI50: 2980 nM
  TGI: > 100 µM
[36]
  GI50: 773 nM
  TGI: > 100 µM
[37]
  GI50: 543 nM
  TGI: > 100 µM
[38]
  GI50: 3.52 µM
  TGI: > 100 µM
[39]
  GI50: 2940 nM
  TGI: > 100 µM
[40]
  GI50: 520 nM
  TGI: 9.12 µM
[41]
  GI50: 2630 nM
  TGI: > 100 µM
[42]
  GI50: 1330 nM
  TGI: > 100 µM
[43]
  TGI: 65.1 µM
[44]
  GI50: 1350 nM
  TGI: > 100 µM
[45]
  GI50: 407 nM
  TGI: 15.2 µM
[46]
  GI50: 2590 nM
  TGI: > 100 µM
[47]
  GI50: 572 nM
  TGI: > 100 µM
[48]
  GI50: 2350 nM
  TGI: > 100 µM
[49]
  GI50: 1140 nM
  TGI: 23.1 µM
[50]
  GI50: 754 nM
  TGI: 11.7 µM
[51]
  GI50: 749 nM
  TGI: > 100 µM
[52]
  GI50: 4.89 µM
  TGI: > 100 µM
[53]
  GI50: 1110 nM
  TGI: > 100 µM
